“And” between values parts separate entries of the source, which are not always exact repeats. Identical values can stand only once. Like-named read-outs stand apart in the source and are kept apart here.
Legend:
α2B adrenergic receptor = target: T1, α2B adrenergic receptor (Homo sapiens, UniProt P18089); assay: PDSP radioligand binding, α2B; conditions: for inhibition at 10 µM: read-out: % inhibition at 10 µM; for Ki: full concentration-response curves, n = 3-6 unless noted
T1 sequence (P18089 1-450): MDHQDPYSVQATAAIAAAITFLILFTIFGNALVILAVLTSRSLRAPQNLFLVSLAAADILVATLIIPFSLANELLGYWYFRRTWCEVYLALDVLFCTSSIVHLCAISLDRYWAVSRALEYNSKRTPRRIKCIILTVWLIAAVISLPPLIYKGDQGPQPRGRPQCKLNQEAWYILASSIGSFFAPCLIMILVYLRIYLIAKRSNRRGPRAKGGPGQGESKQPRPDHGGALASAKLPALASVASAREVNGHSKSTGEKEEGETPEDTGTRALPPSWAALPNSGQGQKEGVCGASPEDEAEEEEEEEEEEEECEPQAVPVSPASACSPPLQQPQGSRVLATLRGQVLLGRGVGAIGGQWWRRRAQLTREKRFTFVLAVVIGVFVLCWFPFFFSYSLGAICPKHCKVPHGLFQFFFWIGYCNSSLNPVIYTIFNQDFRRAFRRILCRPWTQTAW

[1] = target: T2, 5HT2C serotonergic receptor (Homo sapiens, UniProt P28335); assay: PDSP radioligand binding, 5HT2C; conditions: for Ki: full concentration-response curves, n = 3-6 unless noted; for inhibition at 10 µM: read-out: % inhibition at 10 µM
T2 sequence (P28335 33-458): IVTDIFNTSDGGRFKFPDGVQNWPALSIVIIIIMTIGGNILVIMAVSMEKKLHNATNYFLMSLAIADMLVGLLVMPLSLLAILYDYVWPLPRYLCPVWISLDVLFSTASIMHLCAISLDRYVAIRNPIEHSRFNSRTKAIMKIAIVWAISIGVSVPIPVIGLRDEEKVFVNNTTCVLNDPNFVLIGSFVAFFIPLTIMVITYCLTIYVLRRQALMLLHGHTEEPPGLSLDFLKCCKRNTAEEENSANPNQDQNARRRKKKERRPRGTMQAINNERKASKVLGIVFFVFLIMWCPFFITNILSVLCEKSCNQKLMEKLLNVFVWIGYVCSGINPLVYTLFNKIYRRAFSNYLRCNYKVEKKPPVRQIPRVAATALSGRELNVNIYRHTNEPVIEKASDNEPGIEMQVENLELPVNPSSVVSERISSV

δ opioid receptor = δ opioid receptor (Homo sapiens, UniProt P41143); assay: PDSP radioligand binding, δ opioid; conditions: for inhibition at 10 µM: read-out: % inhibition at 10 µM; for Ki: full concentration-response curves, n = 3-6 unless noted
5HT3 ion channels = target: T3, 5HT3 ion channels (Homo sapiens, UniProt P46098); assay: PDSP radioligand binding, 5HT3 ion channel; conditions: for inhibition at 10 µM: read-out: % inhibition at 10 µM
T3 sequence (P46098 24-478): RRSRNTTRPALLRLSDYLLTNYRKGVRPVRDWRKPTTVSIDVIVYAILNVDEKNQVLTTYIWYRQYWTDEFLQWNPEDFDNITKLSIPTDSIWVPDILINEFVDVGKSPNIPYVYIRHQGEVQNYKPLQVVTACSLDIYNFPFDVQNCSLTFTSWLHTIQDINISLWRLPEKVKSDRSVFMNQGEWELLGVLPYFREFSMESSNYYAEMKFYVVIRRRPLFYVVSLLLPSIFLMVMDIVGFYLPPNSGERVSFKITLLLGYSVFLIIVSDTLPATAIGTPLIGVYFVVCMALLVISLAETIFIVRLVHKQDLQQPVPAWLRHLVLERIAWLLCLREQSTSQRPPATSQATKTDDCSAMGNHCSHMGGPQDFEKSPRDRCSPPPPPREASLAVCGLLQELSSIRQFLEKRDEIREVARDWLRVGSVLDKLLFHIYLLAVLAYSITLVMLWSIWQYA

hERG potassium channel = hERG potassium channel (Homo sapiens, UniProt Q12809); assay: PDSP hERG functional assay; type: cell-based; conditions: for inhibition at 10 µM: human; for Ki: not binding
σ1 receptor = σ1 receptor (Cavia porcellus, UniProt Q60492); assay: PDSP radioligand binding, σ1; conditions: read-out: % inhibition at 10 µM
β1 adrenergic receptor = β1 adrenergic receptor (Homo sapiens, UniProt P08588); assay: PDSP radioligand binding, β1; conditions: read-out: % inhibition at 10 µM
β2 adrenergic receptor = β2 adrenergic receptor (Homo sapiens, UniProt P07550); assay: PDSP radioligand binding, β2; conditions: read-out: % inhibition at 10 µM
[2] = target: T4, M2 muscarinic acetylcholine receptor (Homo sapiens, UniProt P08172); assay: PDSP radioligand binding, M2; conditions: read-out: % inhibition at 10 µM
T4 sequence (P08172 1-466): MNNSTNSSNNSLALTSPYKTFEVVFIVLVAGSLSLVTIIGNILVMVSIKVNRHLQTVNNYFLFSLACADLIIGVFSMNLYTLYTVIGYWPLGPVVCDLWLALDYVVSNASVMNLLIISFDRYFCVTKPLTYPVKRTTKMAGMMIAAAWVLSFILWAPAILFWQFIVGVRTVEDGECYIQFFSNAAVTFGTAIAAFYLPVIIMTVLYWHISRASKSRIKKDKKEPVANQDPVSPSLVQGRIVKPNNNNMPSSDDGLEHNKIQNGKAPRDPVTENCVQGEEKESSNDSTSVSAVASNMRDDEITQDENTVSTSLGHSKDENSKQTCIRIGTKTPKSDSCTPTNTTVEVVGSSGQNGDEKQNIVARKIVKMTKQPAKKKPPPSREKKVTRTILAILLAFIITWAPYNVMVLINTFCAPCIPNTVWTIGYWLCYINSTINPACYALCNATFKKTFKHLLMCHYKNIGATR

[3] = target: T5, M5 muscarinic acetylcholine receptor (Homo sapiens, UniProt P08912); assay: PDSP radioligand binding, M5; conditions: read-out: % inhibition at 10 µM
T5 sequence (P08912 1-532): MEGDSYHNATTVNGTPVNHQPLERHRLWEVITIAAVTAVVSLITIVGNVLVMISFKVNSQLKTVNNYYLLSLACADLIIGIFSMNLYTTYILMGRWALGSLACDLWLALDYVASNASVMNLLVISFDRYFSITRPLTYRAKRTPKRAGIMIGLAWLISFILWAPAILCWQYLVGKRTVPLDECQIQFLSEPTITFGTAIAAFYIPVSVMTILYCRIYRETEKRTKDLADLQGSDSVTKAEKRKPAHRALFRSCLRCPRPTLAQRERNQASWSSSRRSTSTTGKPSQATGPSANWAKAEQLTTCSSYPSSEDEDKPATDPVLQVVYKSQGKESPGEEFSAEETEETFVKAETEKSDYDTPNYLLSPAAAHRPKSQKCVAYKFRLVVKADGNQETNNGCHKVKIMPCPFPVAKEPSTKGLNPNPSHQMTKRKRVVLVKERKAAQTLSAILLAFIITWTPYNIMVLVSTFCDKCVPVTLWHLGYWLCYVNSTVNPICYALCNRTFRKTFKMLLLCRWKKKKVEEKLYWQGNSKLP

D2 dopaminergic receptor = D2 dopaminergic receptor (Homo sapiens, UniProt P14416); assay: PDSP radioligand binding, D2; conditions: read-out: % inhibition at 10 µM
[4] = target: 5HT1D serotonergic receptor (Homo sapiens, UniProt P28221); assay: PDSP radioligand binding, 5HT1D; conditions: read-out: % inhibition at 10 µM
κ opioid receptor = κ opioid receptor (Homo sapiens, UniProt P41145); assay: PDSP radioligand binding, κ opioid; conditions: read-out: % inhibition at 10 µM
κ opioid receptor, sequence (P41145 whole entry): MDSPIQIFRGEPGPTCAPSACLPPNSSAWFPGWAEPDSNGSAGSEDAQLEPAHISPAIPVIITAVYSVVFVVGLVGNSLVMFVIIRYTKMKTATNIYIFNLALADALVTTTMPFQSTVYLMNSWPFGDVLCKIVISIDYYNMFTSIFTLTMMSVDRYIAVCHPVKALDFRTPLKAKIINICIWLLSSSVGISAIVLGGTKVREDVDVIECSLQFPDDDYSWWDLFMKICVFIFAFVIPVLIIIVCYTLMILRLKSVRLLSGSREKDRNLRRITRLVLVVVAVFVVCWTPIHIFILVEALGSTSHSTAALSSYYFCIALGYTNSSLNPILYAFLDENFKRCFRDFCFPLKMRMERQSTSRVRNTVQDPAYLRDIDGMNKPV

σ1 receptor, sequence (Q60492 whole entry): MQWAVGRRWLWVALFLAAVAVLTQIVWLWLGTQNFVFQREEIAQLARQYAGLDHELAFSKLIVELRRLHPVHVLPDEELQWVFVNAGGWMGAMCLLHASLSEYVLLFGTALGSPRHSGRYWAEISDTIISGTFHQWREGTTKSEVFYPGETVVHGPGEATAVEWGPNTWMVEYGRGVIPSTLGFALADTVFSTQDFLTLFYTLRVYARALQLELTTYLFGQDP
β1 adrenergic receptor, sequence (P08588 whole entry, species assumed): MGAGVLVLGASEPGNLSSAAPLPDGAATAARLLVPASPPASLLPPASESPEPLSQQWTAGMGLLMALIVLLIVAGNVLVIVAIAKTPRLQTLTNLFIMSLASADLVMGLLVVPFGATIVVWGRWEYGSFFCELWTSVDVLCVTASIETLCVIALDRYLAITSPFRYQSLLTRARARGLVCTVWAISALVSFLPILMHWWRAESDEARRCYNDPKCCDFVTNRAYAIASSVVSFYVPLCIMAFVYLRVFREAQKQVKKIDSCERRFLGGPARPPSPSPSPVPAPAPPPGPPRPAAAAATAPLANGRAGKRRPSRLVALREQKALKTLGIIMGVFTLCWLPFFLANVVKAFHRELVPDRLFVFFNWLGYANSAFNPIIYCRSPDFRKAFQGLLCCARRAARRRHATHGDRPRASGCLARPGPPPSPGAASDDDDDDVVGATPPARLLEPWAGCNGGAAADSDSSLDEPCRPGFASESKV
β2 adrenergic receptor, sequence (P07550 whole entry): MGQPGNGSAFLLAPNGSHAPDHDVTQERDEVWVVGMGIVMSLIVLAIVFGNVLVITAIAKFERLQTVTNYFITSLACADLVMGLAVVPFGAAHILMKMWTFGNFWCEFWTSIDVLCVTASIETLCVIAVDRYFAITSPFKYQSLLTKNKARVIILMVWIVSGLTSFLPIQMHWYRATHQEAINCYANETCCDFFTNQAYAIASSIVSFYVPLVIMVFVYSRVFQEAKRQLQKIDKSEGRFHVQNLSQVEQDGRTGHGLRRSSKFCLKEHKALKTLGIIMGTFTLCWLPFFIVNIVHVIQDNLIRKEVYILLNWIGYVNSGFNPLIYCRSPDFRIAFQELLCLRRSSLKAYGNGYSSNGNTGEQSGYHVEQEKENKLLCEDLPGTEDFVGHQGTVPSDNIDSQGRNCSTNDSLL
D2 dopaminergic receptor, sequence (P14416 whole entry): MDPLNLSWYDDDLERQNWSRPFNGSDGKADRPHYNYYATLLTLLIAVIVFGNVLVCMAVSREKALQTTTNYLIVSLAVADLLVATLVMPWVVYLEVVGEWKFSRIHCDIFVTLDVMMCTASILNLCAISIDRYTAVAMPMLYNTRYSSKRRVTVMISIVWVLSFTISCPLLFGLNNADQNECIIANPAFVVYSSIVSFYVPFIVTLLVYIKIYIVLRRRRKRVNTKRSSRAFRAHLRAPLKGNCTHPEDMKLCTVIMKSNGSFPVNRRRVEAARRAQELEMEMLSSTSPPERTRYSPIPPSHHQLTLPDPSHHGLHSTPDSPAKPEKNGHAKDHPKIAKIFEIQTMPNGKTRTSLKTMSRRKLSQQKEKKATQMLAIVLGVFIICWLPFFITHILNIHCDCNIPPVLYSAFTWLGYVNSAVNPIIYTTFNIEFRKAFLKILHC
hERG potassium channel, sequence (Q12809 whole entry): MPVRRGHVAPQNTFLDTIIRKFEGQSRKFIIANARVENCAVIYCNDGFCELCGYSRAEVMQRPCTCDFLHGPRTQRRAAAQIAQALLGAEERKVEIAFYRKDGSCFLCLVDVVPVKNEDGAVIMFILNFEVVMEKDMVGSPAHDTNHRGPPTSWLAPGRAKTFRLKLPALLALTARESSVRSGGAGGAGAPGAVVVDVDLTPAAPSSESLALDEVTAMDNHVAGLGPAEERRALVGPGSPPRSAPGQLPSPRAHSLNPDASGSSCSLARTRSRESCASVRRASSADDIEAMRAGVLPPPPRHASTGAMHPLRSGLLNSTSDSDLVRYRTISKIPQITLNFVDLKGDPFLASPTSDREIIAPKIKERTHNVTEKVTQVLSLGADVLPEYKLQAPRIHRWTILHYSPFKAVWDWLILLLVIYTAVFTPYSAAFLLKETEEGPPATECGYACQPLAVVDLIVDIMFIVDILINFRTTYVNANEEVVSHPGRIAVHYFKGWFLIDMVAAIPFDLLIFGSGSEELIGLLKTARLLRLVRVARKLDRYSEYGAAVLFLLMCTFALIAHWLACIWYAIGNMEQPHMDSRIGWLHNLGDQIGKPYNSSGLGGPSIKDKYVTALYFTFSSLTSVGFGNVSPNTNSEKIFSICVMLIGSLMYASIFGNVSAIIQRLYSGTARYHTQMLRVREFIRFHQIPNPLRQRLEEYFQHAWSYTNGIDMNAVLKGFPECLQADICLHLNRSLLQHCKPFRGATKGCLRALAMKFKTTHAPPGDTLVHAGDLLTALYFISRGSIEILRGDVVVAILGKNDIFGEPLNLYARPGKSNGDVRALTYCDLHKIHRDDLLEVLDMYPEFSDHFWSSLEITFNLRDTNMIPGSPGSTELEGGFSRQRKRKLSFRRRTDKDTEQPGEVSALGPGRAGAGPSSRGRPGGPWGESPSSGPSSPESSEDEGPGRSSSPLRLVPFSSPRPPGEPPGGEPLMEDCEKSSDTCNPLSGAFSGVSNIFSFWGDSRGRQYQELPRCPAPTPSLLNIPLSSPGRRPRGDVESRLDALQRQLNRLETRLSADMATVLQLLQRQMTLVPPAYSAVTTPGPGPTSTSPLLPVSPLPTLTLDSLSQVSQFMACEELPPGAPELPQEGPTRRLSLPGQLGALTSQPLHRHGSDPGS
δ opioid receptor, sequence (P41143 whole entry): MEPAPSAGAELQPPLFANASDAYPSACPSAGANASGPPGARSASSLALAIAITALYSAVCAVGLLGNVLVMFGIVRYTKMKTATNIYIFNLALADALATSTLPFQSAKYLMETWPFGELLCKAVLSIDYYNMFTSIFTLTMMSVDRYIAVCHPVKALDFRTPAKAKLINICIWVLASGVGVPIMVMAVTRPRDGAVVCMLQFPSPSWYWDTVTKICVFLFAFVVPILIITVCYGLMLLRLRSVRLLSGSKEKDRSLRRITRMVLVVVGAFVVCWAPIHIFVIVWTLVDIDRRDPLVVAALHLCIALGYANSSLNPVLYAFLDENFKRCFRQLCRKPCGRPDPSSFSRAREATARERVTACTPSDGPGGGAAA
5HT1D serotonergic receptor, sequence (P28221 whole entry): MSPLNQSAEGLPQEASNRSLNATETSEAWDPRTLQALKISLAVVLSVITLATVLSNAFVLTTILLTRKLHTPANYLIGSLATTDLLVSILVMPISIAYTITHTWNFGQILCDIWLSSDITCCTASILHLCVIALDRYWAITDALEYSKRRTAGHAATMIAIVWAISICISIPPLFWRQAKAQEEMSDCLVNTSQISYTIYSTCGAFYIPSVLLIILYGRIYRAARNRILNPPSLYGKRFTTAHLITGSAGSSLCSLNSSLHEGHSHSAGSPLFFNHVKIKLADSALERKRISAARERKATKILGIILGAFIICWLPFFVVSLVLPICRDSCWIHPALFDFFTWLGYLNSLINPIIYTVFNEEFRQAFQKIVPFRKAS

Structure (SMILES) | inhibition at 10 µM (α2B adrenergic receptor; single concentration 10 µM) | Ki [1] | inhibition at 10 µM [1] | inhibition at 10 µM (δ opioid receptor; single concentration 10 µM) | inhibition at 10 µM (5HT3 ion channels; single concentration 10 µM) | inhibition at 10 µM (σ1 receptor; single concentration 10 µM) | inhibition at 10 µM (β1 adrenergic receptor; single concentration 10 µM) | inhibition at 10 µM (β2 adrenergic receptor; single concentration 10 µM) | inhibition at 10 µM ([2]; single concentration 10 µM) | inhibition at 10 µM ([3]; single concentration 10 µM) | inhibition at 10 µM (D2 dopaminergic receptor; single concentration 10 µM) | inhibition at 10 µM ([4]; single concentration 10 µM) | Ki (α2B adrenergic receptor) | inhibition at 10 µM ([1]; single concentration 10 µM) | inhibition at 10 µM (κ opioid receptor; single concentration 10 µM) | inhibition at 10 µM (hERG potassium channel; single point 10 µM) | Ki (hERG potassium channel) | other results
O[C@@H]1[C@H](O)[C@@H]2C[C@@H]2[C@H]1n1cnc2c(NC(C3CC3)C3CC3)nc(Cl)nc21 [Compound 10] | 15% | 1.85 ± 0.46 µM | 49% | 0% | 3% | 9% | 4% | 2% | 15% | 0% | 29% | 18% | – | – | – | – | – | % inhibition at 10 µM (hERG functional assay) (hERG potassium channel; single point 10 µM): 4.5 ± 2.4%; inhibition at 10 µM (κ opioid receptor): 0%
O[C@@H]1[C@H](O)[C@@H]2C[C@@H]2[C@H]1n1cnc2c(NCc3cccc(Cl)c3)ncnc21 [Compound 7] | 42% | 1.74 µM | – | 7% | 83% | 29% | 0% | 53% | 15% | 15% | 6% | 4% | 6.34 ± 1.47 µM | 51% | 4% | – | – | Ki (5HT3 ion channels; full concentration-response curves, n = 3-6 unless noted): 3.26 ± 0.8 µM
Fc1ccc(C#Cc2nc(NCc3cccc(Cl)c3)c3nc[nH]c3n2)cc1F [Compound 8] | 63% | – | – | 12% | 0% | 0% | 0% | 0% | 6% | 2% | 0% | 26% | 1.09 ± 0.14 µM | 11% | 15% | – | – | –
CNC(=O)[C@@]12C[C@@H]1[C@@H](n1cnc3c(NCc4cccc(Cl)c4)nc(Cl)nc31)[C@H](O)[C@@H]2O [Compound 4] | 21% | 0.12 µM and 0.122 µM | – | 10% | 5% | 2% | 0% | 2% | 14% | 1% | 16% | 31% | – | 95% | 6% | 2% | – | –
CNC(=O)[C@@]12C[C@@H]1[C@@H](n1cnc3c(NCc4cccc(Cl)c4)nc(C#Cc4ccc(F)cc4)nc31)[C@H](O)[C@@H]2O [Compound 2] | 12% | – | – | 24% | 26% | 2% | 0% | 0% | 0% | 9% | 0% | 21% | – | 16% | 20% | 5.8 ± 11.9% | 39.5 µM | Ki (δ opioid receptor): 6.62 ± 1.7 µM
Clc1cccc(CNc2nc(Cl)nc3[nH]cnc23)c1 [Compound 9] | 95% | 3.32 ± 0.32 µM | – | 7% | 28% | 0% | 37% | 0% | 9% | 0% | 0% | 14% | 0.061 ± 0.02 µM | 56% | 0% | – | – | –
O[C@@H]1[C@H](O)[C@@H]2C[C@@H]2[C@H]1n1cnc2c(NCc3cccc(Cl)c3)nc(C#Cc3ccc(F)c(F)c3)nc21 [Compound 6] | 0% | – | – | 11% | 0% | 16% | 6% | 0% | 7% | 3% | 9% | 12% | 5.97 ± 1.53 µM | 0% | 29% | – | – | –
CNC(=O)[C@@]12C[C@@H]1[C@@H](n1cnc3c(NCc4cccc(Cl)c4)nc(C#Cc4ccc(F)c(F)c4)nc31)[C@H](O)[C@@H]2O [Compound 1] | – | 7.19 ± 1.41 µM | 20% | – | – | – | – | – | – | – | – | – | 2.86 ± 1.11 µM | – | – | 43 ± 1.9% | 12.2 µM | inhibition at 10 µM (α2B adrenergic receptor): 49%; Ki (δ opioid receptor): 2.44 ± 1.54 µM; inhibition at 10 µM (δ opioid receptor): 44%; inhibition at 10 µM (5HT3 ion channels): 3%; inhibition at 10 µM (σ1 receptor): 0%; inhibition at 10 µM (β1 adrenergic receptor): 0%; inhibition at 10 µM (β2 adrenergic receptor): 0%; inhibition at 10 µM [2]: 22%; inhibition at 10 µM [3]: 2%; inhibition at 10 µM (D2 dopaminergic receptor): 0%; inhibition at 10 µM [4]: 0%; inhibition at 10 µM (κ opioid receptor): 71%
CNC(=O)[C@@]12C[C@@H]1[C@@H](n1cnc3c(NC)nc(C#Cc4ccc(F)c(F)c4)nc31)[C@H](O)[C@@H]2O [Compound 5] | 0% | – | 1% | 9% | 2% | 10% | 9% | 2% | 0% | 4% | 18% | 13% | – | – | 21% | – | 7.93 µM | –
CNC(=O)[C@@]12C[C@@H]1[C@@H](n1cnc3c(NCc4cccc(Cl)c4)nc(C#Cc4ccccc4Cl)nc31)[C@H](O)[C@@H]2O [Compound 3] | 8% | – | – | 31% | 50% | 33% | 2% | 0% | 0% | 9% | 0% | 10% | 6.48 ± 2.94 µM | 25% | 19% | 10.3 ± 4.9% | 39.2 µM | –

Source: article PMC4032265 (PLoS ONE, 2014)
